Experimental data as given in PubChem BioAssay (NCI).
Where “and” joins values, the source holds several entries; their conditions need not be identical. Identical values can stand only once.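 Results reflect a 48-hour exposure of cells in 96-well plates to compound at five concentrations. Here, GI50 denotes the concentration required for 50% inhibition of growth. At the TGI there is no net growth.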

What was measured:
Experiment in all cases: NCI anticancer screen, dose series, 48 h
DLD-1 colon = system: DLD-1 colon
DMS 114 small cell lung = system: DMS 114 small cell lung
DMS 273 small cell lung = system: DMS 273 small cell lung
HOP-18 NSCLC = system: HOP-18 NSCLC
KM20L2 colon = system: KM20L2 colon
M19-MEL melanoma = system: M19-MEL melanoma
XF 498 CNS = system: XF 498 CNS
SNB-78 CNS = system: SNB-78 CNS
DU-145 prostate = system: DU-145 prostate
MDA-MB-231 breast = system: MDA-MB-231 breast
PC-3 prostate = system: PC-3 prostate
T-47D breast = system: T-47D breast

Compound | TGI (DLD-1 colon) [µM] | TGI (DMS 114 small cell lung) [µM] | TGI (DMS 273 small cell lung) [µM] | TGI (HOP-18 NSCLC) [µM] | TGI (KM20L2 colon) [µM] | TGI (M19-MEL melanoma) [µM] | TGI (XF 498 CNS) [µM] | TGI (SNB-78 CNS) [µM] | TGI (DU-145 prostate) [µM] | TGI (MDA-MB-231 breast) | TGI (PC-3 prostate) | TGI (T-47D breast) [µM] | GI50 (MDA-MB-231 breast) [µM] | GI50 (PC-3 prostate) [µM] | GI50 (T-47D breast) [µM]
CC(CC(=O)Nc1ccc(NC(=O)CC(C)N=NC(N)=O)cc1)N=NC(N)=O (configuration not stated) | > 100 | 38.2 | > 100 | > 100 | > 100 | > 100 | > 100 |  |  |  |  |  |  |  | 
O=C(CCc1cc(-c2ccc(F)cc2)n[nH]1)N(Cc1ccccc1)Cc1ccccc1 |  | > 100 | > 100 | > 100 | > 100 | > 100 | > 100 | > 100 |  |  |  |  |  |  | 
COc1ccc(/C=C2/CSC/C(=C/c3ccc(OC)c(OC)c3)C2=O)cc1OC |  |  | 3.09 | 17.3 | 6.53 | 6.63 | 25.8 | > 100 | 9.07 | 8.18 µM | 11.7 µM | 4.94 |  |  | 
COC1CC(n2cc(F)c(N)nc2=O)OC1CO (configuration not stated) | > 100 | > 100 | > 100 | > 100 | > 100 |  | > 100 | > 100 |  |  |  |  |  |  | 
NC(=O)c1nc(-c2ccc(Cl)c(Cl)c2)nc2ccccc12 | > 100 | > 100 | > 24.9 | > 100 | > 100 | > 100 | > 100 | > 100 |  |  |  |  |  |  | 
CCCCOP1(=O)CC(C)=C(Cl)C(C)(OC)C1 (configuration not stated) | > 100 |  | > 100 |  | > 100 | > 100 | > 100 | > 100 |  |  |  |  |  |  | 
Oc1ccc(O)c(-n2cccn2)c1-n1cccn1 | > 100 | > 100 | > 100 |  | > 100 | > 100 | > 100 | > 100 |  |  |  |  |  |  | 
CC1=CC(=O)N2C(OC[C@@H]2c2ccccc2)O1 (some centres not stated) | > 100 |  |  | > 100 | > 100 | > 100 | > 100 |  |  |  |  |  |  |  | 
CCOC(=O)C(=O)Nc1nc2ccc(C)cc2s1 | > 100 | > 100 | > 100 |  | > 100 | > 100 | > 100 | > 100 |  |  |  |  |  |  | 
CCOc1ccccc1NC(=O)C1=C(C)NC(C)=C(C(=O)Nc2ccccc2OCC)C1c1cccc([N+](=O)[O-])c1 | > 100 | > 100 | > 100 |  | > 100 | > 100 | > 100 | > 100 |  |  |  |  |  |  | 
CC/C(C)=C1\CCC(CN(C)C)C1=O (configuration not stated) | 30.5 | 41.8 | 33.3 | 32.2 | 47.5 | 32.6 | 34.7 | 54.8 |  |  |  |  |  |  | 
N#CNC1=NCCC(=O)N1CCc1c[nH]c2ccccc12 | > 100 | > 100 | > 100 |  |  | > 100 | > 100 | > 100 |  |  |  |  |  |  | 
CN(C)C(=S)/N=c1\ss/c(=N\S(=O)(=O)c2ccccc2)n1C | > 100 | > 100 | > 100 | > 100 | > 100 | > 100 | > 100 | > 100 |  |  |  |  |  |  | 
CC1(C2CCC3(C)C(C2)C3Sc2ccccc2)OCCO1 (configuration not stated) | 92.2 | 47.1 | 60 |  |  | 40.6 | 40.7 | > 100 |  |  |  |  |  |  | 
COc1cc(CCc2ccncc2)cc(OC)c1OC | > 100 | > 100 | > 100 | > 100 | > 100 | > 100 | > 100 | > 100 |  |  |  |  |  |  | 
C=CCCC(=O)CC(=O)OCc1ccccc1 | > 100 | > 100 | > 100 | > 100 | > 100 | > 100 | > 100 | > 100 |  |  |  |  |  |  | 
CCN1CCC(O)(/C=C/c2ccccc2)C(C(=O)/C=C/c2ccccc2)C1 (configuration not stated) | 8.22 | 5.6 | 3.27 | 18.1 | 7.22 | 4.18 | 18.5 | 11.5 |  |  |  |  |  |  | 
COC(=O)C#CC(N)=O | > 100 | > 100 | > 100 | > 81.1 | > 31.6 | > 100 |  | > 100 |  |  |  |  |  |  | 
C=CCO[C@H]1CC[C@@]2(C)C(CC[C@]3(C)C2CC=C2[C@@H]4[C@@H](C)C(C)CC[C@]4(C(=O)O)CCC23C)C1(C)C (some centres not stated) | 32.1 | 32.1 |  | 37.1 | 33.2 | 35.7 | 20.2 | 35.4 |  |  |  |  |  |  | 
CC1=C2C3OC(=O)C(C)C3C(O)C[C@@]2(C)C(=O)CC1 (some centres not stated) | > 100 | > 100 | > 100 | > 100 | > 100 | > 100 |  | > 100 |  |  |  |  |  |  | 
CCOC(=O)CC(C)C1(C=O)CCCCC1=O (configuration not stated) | > 100 | 41.6 | > 100 | > 100 | > 100 | > 100 | > 100 | > 100 |  |  |  |  |  |  | 
CN1C/C(=C\c2ccc(C(=O)O)cc2)C(=O)/C(=C/c2ccc(C(=O)O)cc2)C1 | > 100 | > 100 | > 100 | > 100 | > 100 | > 100 | > 100 | > 100 |  |  |  |  |  |  | 
O=C1C(=Cc2ccc(F)cc2)C(=O)c2ccccc21 | > 100 | > 100 | > 100 |  | > 100 | > 100 | > 100 |  |  |  |  |  |  |  | 
NC1=Nc2ccccc2Sc2ccccc21 | > 100 | > 100 | > 100 | > 100 | > 100 | > 100 | > 100 | > 100 |  |  |  |  |  |  | 
COC(=O)C(=O)C(C#N)c1c(Cl)cccc1Cl (configuration not stated) | > 100 | > 100 | > 100 |  | > 100 | > 100 | > 100 | > 100 |  |  |  |  |  |  | 
Cc1ccc([N+]2=NC(c3ccccc3)=NN(c3ccccc3)C2)cc1 | > 100 | > 100 | > 100 |  | > 100 | > 100 | > 100 |  |  |  |  |  |  |  | 
COC(=O)Nc1nc2ccc(C(=O)c3cccs3)cc2[nH]1 | > 100 | > 100 | > 100 | > 100 | 0.0377 | > 100 | 0.0934 | > 63.1 | 1.5 | 79.2 µM and > 100 µM | 14.2 µM and > 100 µM | > 100 | 0.595 | 0.246 | > 100
